Inconclusive results and toxic doses are left out. The calls were made as follows: active = survival T/C of 150% or more; inactive = T/C below 125% in these data.
System: CD2F1 mice, L1210 leukemia ip, survival T/C
Experiment: NCI In Vivo Anticancer Drug Screen. Data for tumor model L1210 Leukemia (intraperitoneal) in CD2F1 (CDF1) mice
Conditions: higher = longer survival
Outline: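 Vehicle-treated tumor-bearing mice served as controls (C) for compound-treated mice (T). Reported figure is T divided by C.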

[1] = endpoint: mean survival time, dose: 50.0 mg/kg/injection, schedule: Q01DX009 (ip), vehicle: saline with Tween-80
[2] = endpoint: mean survival time, dose: 100.0 mg/kg/injection, schedule: Q01DX009 (ip), vehicle: saline with Tween-80
[3] = endpoint: mean survival time, dose: 200.0 mg/kg/injection, schedule: Q01DX009 (ip), vehicle: saline with Tween-80
[4] = endpoint: mean survival time, dose: 25.0 mg/kg/injection, schedule: Q04DX002 (ip), vehicle: saline with Tween-80
[5] = endpoint: mean survival time, dose: 50.0 mg/kg/injection, schedule: Q04DX002 (ip), vehicle: saline with Tween-80
[6] = endpoint: mean survival time, dose: 100.0 mg/kg/injection, schedule: Q04DX002 (ip), vehicle: saline with Tween-80
[7] = endpoint: mean survival time, dose: 100.0 mg/kg/injection, schedule: Q04DX003 (ip), vehicle: saline with Tween-80
[8] = endpoint: mean survival time, dose: 200.0 mg/kg/injection, schedule: Q04DX003 (ip), vehicle: saline with Tween-80
[9] = endpoint: mean survival time, dose: 100.0 mg/kg/injection, schedule: Q01DX001 (ip), vehicle: saline
[10] = endpoint: mean survival time, dose: 200.0 mg/kg/injection, schedule: Q01DX001 (ip), vehicle: saline
[11] = endpoint: mean survival time, dose: 50.0 mg/kg/injection, schedule: Q01DX009 (ip), vehicle: Klucel (hydroxypropylcellulose) (HPC)
[12] = endpoint: mean survival time, dose: 100.0 mg/kg/injection, schedule: Q01DX009 (ip), vehicle: Klucel (hydroxypropylcellulose) (HPC)
[13] = endpoint: mean survival time, dose: 400.0 mg/kg/injection, schedule: Q01DX009 (ip), vehicle: saline with Tween-80

Measured: T/C

COCc1nnc(N)c(C(N)=O)n1
inactive: endpoint: mean survival time, dose: 100.0 mg/kg/injection, schedule: Q01DX001 (ip), vehicle: carboxymethylcellulose (CMC) 100 % of control | endpoint: mean survival time, dose: 200.0 mg/kg/injection, schedule: Q01DX001 (ip), vehicle: carboxymethylcellulose (CMC) 100 % of control | endpoint: mean survival time, dose: 400.0 mg/kg/injection, schedule: Q01DX001 (ip), vehicle: carboxymethylcellulose (CMC) 89 % of control

CCOC(=O)CNC(=O)Nc1ccccc1OCC
inactive: [1] 89 % of control | [2] 89 % of control | [3] 93 % of control

C=CCN1C(=O)C=CC1=O
inactive: [4] 95 % of control | [5] 91 % of control | [6] 88 % of control

O=C1OC2CC3CCC2C13 (configuration not stated)
inactive: endpoint: mean survival time, dose: 6.25 mg/kg/injection, schedule: Q01DX009 (ip), vehicle: saline 101 % of control | endpoint: mean survival time, dose: 12.5 mg/kg/injection, schedule: Q01DX009 (ip), vehicle: saline 101 % of control | endpoint: mean survival time, dose: 25.0 mg/kg/injection, schedule: Q01DX009 (ip), vehicle: saline 95 % of control

O=C(O)COc1cccc(OCC(=O)O)c1
inactive: [7] 100 % of control | endpoint: mean survival time, dose: 100.0 mg/kg/injection, schedule: Q04DX003 (ip), vehicle: saline 96 % of control | [8] 91 % of control | endpoint: mean survival time, dose: 200.0 mg/kg/injection, schedule: Q04DX003 (ip), vehicle: saline 94 % of control | endpoint: mean survival time, dose: 400.0 mg/kg/injection, schedule: Q04DX003 (ip), vehicle: saline 100 % of control

CCSC(C)CC(=O)O (configuration not stated)
inactive: [9] 103 % of control | [10] 103 % of control

CC(=O)Oc1ccc(C(=O)O)cc1
inactive: [11] 91 % of control | [12] 98 % of control

COc1cc(C=C(C(C)=O)C(C)=O)ccc1O
inactive: [1] 98 % of control | [2] 101 % of control | [3] 98 % of control

CNC(=O)n1c(N)nc(-c2ccccc2)c1-c1ccccc1
inactive: endpoint: median survival time, dose: 6.25 mg/kg/injection, schedule: Q01DX009 (ip), vehicle: saline with Tween-80 101 % of control | endpoint: median survival time, dose: 12.5 mg/kg/injection, schedule: Q01DX009 (ip), vehicle: saline with Tween-80 103 % of control | endpoint: median survival time, dose: 25.0 mg/kg/injection, schedule: Q01DX009 (ip), vehicle: saline with Tween-80 114 % of control | endpoint: median survival time, dose: 50.0 mg/kg/injection, schedule: Q01DX009 (ip), vehicle: saline with Tween-80 119 % of control | endpoint: median survival time, dose: 100.0 mg/kg/injection, schedule: Q01DX009 (ip), vehicle: saline with Tween-80 98 % of control

COc1ccc(OC)c(NC(=O)C2CC2)c1
inactive: [2] 97 % of control | [3] 102 % of control | [13] 98 % of control

ClCCCCC(Cl)(Cl)Cl
inactive: endpoint: mean survival time, dose: 100.0 mg/kg/injection, schedule: Q01DX001 (ip), vehicle: Klucel (hydroxypropylcellulose) (HPC) 101 % of control | endpoint: mean survival time, dose: 200.0 mg/kg/injection, schedule: Q01DX001 (ip), vehicle: Klucel (hydroxypropylcellulose) (HPC) 98 % of control | endpoint: mean survival time, dose: 400.0 mg/kg/injection, schedule: Q01DX001 (ip), vehicle: Klucel (hydroxypropylcellulose) (HPC) 93 % of control

COC(=O)CCC(=O)c1ccc(C)cc1
inactive: endpoint: mean survival time, dose: 100.0 mg/kg/injection, schedule: Q04DX003 (ip), vehicle: acetone 94 % of control | endpoint: mean survival time, dose: 200.0 mg/kg/injection, schedule: Q04DX003 (ip), vehicle: acetone 104 % of control | endpoint: mean survival time, dose: 400.0 mg/kg/injection, schedule: Q04DX003 (ip), vehicle: acetone 98 % of control

C=C1CC(C)(Cn2cnc3c(=O)[nH]cnc32)OC1=O (configuration not stated)
inactive: endpoint: median survival time, dose: 3.13 mg/kg/injection, schedule: Q01DX005 (ip), vehicle: water 94 % of control | endpoint: median survival time, dose: 6.25 mg/kg/injection, schedule: Q01DX005 (ip), vehicle: water 94 % of control | endpoint: median survival time, dose: 12.5 mg/kg/injection, schedule: Q01DX005 (ip), vehicle: water 98 % of control | endpoint: median survival time, dose: 25.0 mg/kg/injection, schedule: Q01DX005 (ip), vehicle: water 92 % of control

C1=[N+](c2ccccc2)CCN1c1ccccc1
inactive: endpoint: mean survival time, dose: 75.0 mg/kg/injection, schedule: Q01DX001 (ip), vehicle: saline 95 % of control | endpoint: mean survival time, dose: 150.0 mg/kg/injection, schedule: Q01DX001 (ip), vehicle: saline 98 % of control

C=CCC1(CO)CCCCC1O (configuration not stated)
inactive: [6] 96 % of control | endpoint: mean survival time, dose: 200.0 mg/kg/injection, schedule: Q04DX002 (ip), vehicle: saline with Tween-80 100 % of control | endpoint: mean survival time, dose: 400.0 mg/kg/injection, schedule: Q04DX002 (ip), vehicle: saline with Tween-80 92 % of control

CC(=O)c1cc(O)ccc1O
inactive: [9] 101 % of control | [10] 98 % of control | endpoint: mean survival time, dose: 400.0 mg/kg/injection, schedule: Q01DX001 (ip), vehicle: saline 98 % of control

COC12C(COC(N)=O)C3=C(C(=O)C(C)=C(N4CC4C#N)C3=O)N1CC1NC12 (configuration not stated)
inactive: endpoint: median survival time, dose: 0.19 mg/kg/injection, schedule: Q01DX001 (ip), vehicle: water 120 % of control | endpoint: median survival time, dose: 0.38 mg/kg/injection, schedule: Q01DX001 (ip), vehicle: water 121 % of control | endpoint: median survival time, dose: 0.75 mg/kg/injection, schedule: Q01DX001 (ip), vehicle: water 123 % of control | endpoint: median survival time, dose: 1.5 mg/kg/injection, schedule: Q01DX001 (ip), vehicle: water 121 % of control

CCCCCCCC(=O)Nc1ncnc2c1ncn2C1OC(COC(C)=O)C(OC(C)=O)C1OC(C)=O (configuration not stated)
inactive: endpoint: mean survival time, dose: 12.5 mg/kg/injection, schedule: Q01DX005 (ip), vehicle: distilled water + Tween-80 98 % of control | endpoint: mean survival time, dose: 25.0 mg/kg/injection, schedule: Q01DX005 (ip), vehicle: distilled water + Tween-80 91 % of control | endpoint: mean survival time, dose: 50.0 mg/kg/injection, schedule: Q01DX005 (ip), vehicle: distilled water + Tween-80 98 % of control | endpoint: mean survival time, dose: 100.0 mg/kg/injection, schedule: Q01DX005 (ip), vehicle: distilled water + Tween-80 94 % of control

CC(C)CCCC(C)C1C(O)CC2C3CCC4CC(O)CCC4(C)C3CCC21C (configuration not stated)
inactive: endpoint: mean survival time, dose: 25.0 mg/kg/injection, schedule: Q01DX001 (ip), vehicle: saline with Tween-80 103 % of control | endpoint: mean survival time, dose: 50.0 mg/kg/injection, schedule: Q01DX001 (ip), vehicle: saline with Tween-80 95 % of control | endpoint: mean survival time, dose: 100.0 mg/kg/injection, schedule: Q01DX001 (ip), vehicle: saline with Tween-80 97 % of control

Nc1cc(C(=O)O)c(O)c(Cl)c1O
inactive: endpoint: mean survival time, dose: 12.5 mg/kg/injection, schedule: Q04DX002 (ip), vehicle: saline with Tween-80 93 % of control | [4] 90 % of control | [5] 97 % of control

O=C(O)C1CCCCC1C(=O)O.[NH-]C1CCC1.[NH2-].[Pt+2] (configuration not stated)
inactive: endpoint: median survival time, dose: 3.12 mg/kg/injection, schedule: Q04DX003 (ip), vehicle: distilled water + Tween-80 107 % of control | endpoint: median survival time, dose: 6.25 mg/kg/injection, schedule: Q04DX003 (ip), vehicle: distilled water + Tween-80 102 % of control | endpoint: median survival time, dose: 12.5 mg/kg/injection, schedule: Q04DX003 (ip), vehicle: distilled water + Tween-80 106 % of control | endpoint: median survival time, dose: 25.0 mg/kg/injection, schedule: Q04DX003 (ip), vehicle: distilled water + Tween-80 102 % of control | endpoint: median survival time, dose: 50.0 mg/kg/injection, schedule: Q04DX003 (ip), vehicle: distilled water + Tween-80 103 % of control

CC(C(=O)c1cc(O)c(O)cc1C(O)(C(F)(F)F)C(F)(F)F)C(O)(C(F)(F)F)C(F)(F)F (configuration not stated)
inactive: [2] 94 % of control | [3] 94 % of control | [13] 94 % of control

C=Cc1cnc([N+](=O)[O-])n1C
inactive: endpoint: mean survival time, dose: 12.5 mg/kg/injection, schedule: Q01DX009 (ip), vehicle: Klucel (hydroxypropylcellulose) (HPC) 103 % of control | endpoint: mean survival time, dose: 25.0 mg/kg/injection, schedule: Q01DX009 (ip), vehicle: Klucel (hydroxypropylcellulose) (HPC) 101 % of control | [11] 101 % of control | [12] 103 % of control | endpoint: mean survival time, dose: 200.0 mg/kg/injection, schedule: Q01DX009 (ip), vehicle: Klucel (hydroxypropylcellulose) (HPC) 101 % of control

O=C1OCC/C1=C1\CCCO1
inactive: [7] 106 % of control | [8] 101 % of control | endpoint: mean survival time, dose: 400.0 mg/kg/injection, schedule: Q04DX003 (ip), vehicle: saline with Tween-80 95 % of control

C=C1C(=O)OC2CC(C)C3C(O)C(O)C(O)C3(C)CC12 (configuration not stated)
inactive: [7] 102 % of control | [8] 104 % of control

Source: PubChem BioAssay AID256 (DTP/NCI, 2004)
